# Experimental data published in patent publication US20230278972A1, “SUBSTITUTED HALOALKYL SULFONANILIDE HERBICIDES” (FMC Corporation, priority 2020, published 2023).
# Assays:
# Format in all cases: in vivo
# [1] = tested on: barnyardgrass (Echinochloa crus-galli); assay: Test A preemergence, barnyardgrass; details: Preemergence; for Plant response rating, Barnyardgrass: 0 to 100 scale (0 no effect, 100 complete control); for Barnyardgrass plant response rating: 125 g ai/ha, visual injury on 0 to 100 scale (0 no effect, 100 complete control), approximately 10 days
# Outline: (§1)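 After sowing into a sand-amended loam, pots for the preemergence test were treated by spraying directly onto soil. In parallel, seedlings at the one- to two-leaf stage and 2 to 10 cm tall were treated postemergence with the identical surfactant-containing formulation.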
# kochia (Bassia scoparia) [2] = assay: Test A preemergence, kochia; details: Preemergence; for Plant response rating, Kochia: 0 to 100 scale (0 no effect, 100 complete control); for Kochia plant response rating: 125 g ai/ha, visual injury on 0 to 100 scale (0 no effect, 100 complete control), approximately 10 days
# Outline: as §1
# [3] = tested on: ragweed (common ragweed, Ambrosia artemisiifolia); assay: Test A preemergence, ragweed; details: Preemergence; for Plant response rating, Ragweed: 0 to 100 scale (0 no effect, 100 complete control); for Ragweed plant response rating: 125 g ai/ha, visual injury on 0 to 100 scale (0 no effect, 100 complete control), approximately 10 days
# Outline: as §1
# [4] = tested on: Ryegrass, Italian (Italian ryegrass, Lolium multiflorum); assay: Test A preemergence, Ryegrass, Italian; details: Preemergence; for Plant response rating, Ryegrass, Italian: 0 to 100 scale (0 no effect, 100 complete control); for Ryegrass, Italian plant response rating: 125 g ai/ha, visual injury on 0 to 100 scale (0 no effect, 100 complete control), approximately 10 days
# Outline: as §1
# [5] = tested on: Foxtail, Giant (giant foxtail, Setaria faberi); assay: Test A preemergence, Foxtail, Giant; details: Preemergence; for Plant response rating, Foxtail, Giant: 0 to 100 scale (0 no effect, 100 complete control); for Foxtail, Giant plant response rating: 125 g ai/ha, visual injury on 0 to 100 scale (0 no effect, 100 complete control), approximately 10 days
# Outline: as §1
# [6] = tested on: pigweed (Amaranthus retroflexus); assay: Test A preemergence, pigweed; details: for Plant response rating, Pigweed: 0 to 100 scale (0 no effect, 100 complete control); for Pigweed plant response rating: 125 g ai/ha, visual injury on 0 to 100 scale (0 no effect, 100 complete control), approximately 10 days
# Outline: as §1
# [7] = tested on: barnyardgrass (Echinochloa crus-galli); assay: Test A postemergence, barnyardgrass; details: Postemergence, 0 to 100 scale (0 no effect, 100 complete control)
# Outline: as §1
# kochia (Bassia scoparia) [8] = assay: Test A postemergence, kochia; details: Postemergence
# Outline: as §1
# [9] = tested on: ragweed (common ragweed, Ambrosia artemisiifolia); assay: Test A postemergence, ragweed; details: Postemergence
# Outline: as §1
# [10] = tested on: Ryegrass, Italian (Italian ryegrass, Lolium multiflorum); assay: Test A postemergence, Ryegrass, Italian; details: Postemergence
# Outline: as §1
# [11] = tested on: Foxtail, Giant (giant foxtail, Setaria faberi); assay: Test A postemergence, Foxtail, Giant; details: Postemergence
# Outline: as §1
# [12] = tested on: pigweed (Amaranthus retroflexus); assay: Test A postemergence, pigweed; details: Postemergence
# Outline: as §1
# [13] = tested on: wheat (Triticum aestivum); assay: Test A postemergence, wheat; details: Postemergence
# Outline: as §1
# corn (Zea mays) = assay: Test A postemergence, corn; details: Postemergence
# Outline: as §1
# [14] = tested on: blackgrass (Alopecurus myosuroides); assay: Test A postemergence, blackgrass; details: Postemergence, 0 to 100 scale (0 no effect, 100 complete control)
# Outline: as §1
# [15] = tested on: galium (catchweed bedstraw, Galium aparine); assay: Test A postemergence, galium; details: Postemergence
# Outline: as §1
# [16] = 31 g ai/ha, visual injury, approx. 10 days
# [17] = 125 g ai/ha, visual injury approx. 10 days
# [18] = 31 g ai/ha, 0 to 100 scale (0 no effect, 100 complete control)
# [19] = 125 g ai/ha, visual injury approx. 10 days, 0 to 100 scale (0 no effect, 100 complete control)
# [20] = 500 g ai/ha, visual injury vs untreated controls after approx. 10 days
# [21] = 500 g ai/ha, visual injury vs untreated controls after approx. 10 days, 0 to 100 scale (0 no effect, 100 complete control)
# [22] = 31 g ai/ha, visual injury on 0 to 100 scale (0 no effect, 100 complete control), approx. 10 days
SMILES,"Plant response rating, Barnyardgrass [1, 16]",Barnyardgrass plant response rating [1],"Plant response rating, Kochia (kochia (Bassia scoparia) [2]; [16])",Kochia plant response rating (kochia (Bassia scoparia) [2]),"Plant response rating, Ragweed [3, 16]",Ragweed plant response rating [3],"Plant response rating, Ryegrass, Italian [4, 16]","Ryegrass, Italian plant response rating [4]","Foxtail, Giant plant response rating [5]",Pigweed plant response rating [6],"Plant response rating, Barnyardgrass [7, 17]","Plant response rating, Kochia (kochia (Bassia scoparia) [8]; [19])","Plant response rating, Ragweed [9, 19]","Plant response rating, Ryegrass, Italian [10, 19]","Plant response rating, Foxtail, Giant [11, 19]","Plant response rating, Pigweed [12, 19]","Plant response rating, Wheat [13, 19]","Plant response rating, Corn (corn (Zea mays); [19])","Plant response rating, Blackgrass [14, 17]","Plant response rating, Galium [15, 19]",further results
COC1CCCN(C(=O)c2cc(N(COC(C)=O)S(=O)(=O)C(F)(F)F)c(C)cc2C)C1 (centres unmarked) [Compound 96],10,70,0,0,0,30,0,80,80,90,30,20,40,20,10,30,40,10,0,80,"Plant response rating, Foxtail, Giant [5, 16]: 40; Plant response rating, Pigweed [6, 16]: 20; Plant response rating, Barnyardgrass ([7]; 31 g ai/ha): 0; Plant response rating, Kochia (kochia (Bassia scoparia) [8]; [18]): 10; Plant response rating, Ragweed [9, 18]: 30; Plant response rating, Ryegrass, Italian [10, 18]: 0; Plant response rating, Foxtail, Giant [11, 18]: 0; Plant response rating, Pigweed [12, 18]: 30; Plant response rating, Wheat [13, 18]: 0; Plant response rating, Corn (corn (Zea mays); [18]): 10; Plant response rating, Blackgrass ([14]; 31 g ai/ha): 0; Plant response rating, Galium [15, 18]: 80"
CCn1nc(C)cc(-c2cc(NS(=O)(=O)C(F)(F)F)c(C)cc2C)c1=O [Compound 68],–,100,–,70,–,30,–,90,100,70,60,10,50,40,20,20,70,10,70,50,"Plant response rating, Barnyardgrass ([1]; 500 g ai/ha): 100; Plant response rating, Kochia (kochia (Bassia scoparia) [2]; 500 g ai/ha): 90; Plant response rating, Ragweed ([3]; 500 g ai/ha): 90; Plant response rating, Ryegrass, Italian ([4]; 500 g ai/ha): 100; Plant response rating, Foxtail, Giant ([5]; 500 g ai/ha): 100; Plant response rating, Pigweed ([6]; 500 g ai/ha): 90; Barnyardgrass plant response rating [7, 20]: 80; Kochia plant response rating (kochia (Bassia scoparia) [8]; [21]): 50; Ragweed plant response rating [9, 21]: 80; Ryegrass, Italian plant response rating [10, 21]: 80; Foxtail, Giant plant response rating [11, 21]: 90; Pigweed plant response rating [12, 21]: 50; Wheat plant response rating [13, 21]: 80; Corn plant response rating (corn (Zea mays); [21]): 20; Blackgrass plant response rating [14, 20]: 70; Galium plant response rating [15, 21]: 80"
CO[C@@H]1CCCN(C(=O)c2cc(NS(=O)(=O)C(F)(F)F)c(C)cc2C)C1 [Compound 94],10,90,0,60,0,30,30,90,100,100,60,50,40,50,30,80,50,20,20,90,"Plant response rating, Foxtail, Giant [5, 16]: 50; Plant response rating, Pigweed [6, 16]: 100; Plant response rating, Barnyardgrass ([7]; 31 g ai/ha): 20; Plant response rating, Kochia (kochia (Bassia scoparia) [8]; [18]): 10; Plant response rating, Ragweed [9, 18]: 10; Plant response rating, Ryegrass, Italian [10, 18]: 20; Plant response rating, Foxtail, Giant [11, 18]: 0; Plant response rating, Pigweed [12, 18]: 50; Plant response rating, Wheat [13, 18]: 10; Plant response rating, Corn (corn (Zea mays); [18]): 0; Plant response rating, Blackgrass ([14]; 31 g ai/ha): 0; Plant response rating, Galium [15, 18]: 70"
COC1CN(C(=O)c2cc(NS(=O)(=O)C(F)(F)F)c(C)cc2C)C1 [Compound 111],10,30,0,50,10,40,0,70,60,90,80,60,90,30,60,90,50,40,0,70,"Plant response rating, Foxtail, Giant [5, 16]: 0; Plant response rating, Pigweed [6, 16]: 10; Plant response rating, Barnyardgrass ([7]; 31 g ai/ha): 40; Plant response rating, Kochia (kochia (Bassia scoparia) [8]; [22]): 20; Plant response rating, Ragweed [9, 22]: 70; Plant response rating, Ryegrass, Italian [10, 22]: 30; Plant response rating, Foxtail, Giant [11, 22]: 0; Plant response rating, Pigweed [12, 22]: 20; Plant response rating, Wheat [13, 22]: 0; Plant response rating, Corn (corn (Zea mays); [22]): 0; Plant response rating, Blackgrass ([14]; 31 g ai/ha): 0; Plant response rating, Galium [15, 22]: 50"
